Measured values as given in the supplement of paper PMC10331698.
± gives the standard deviation of the averaged measurements.

Legend:
Assay in all cases: level (log10 ratio to DMSO vehicle control); higher = higher biomarker level / cell amount than vehicle control
Settings in all cases: in DMSO
1-(Perfluorohexyl)octane = compound: CCCCCCCCC(F)(F)C(F)(F)C(F)(F)C(F)(F)C(F)(F)C(F)(F)F [1-(Perfluorohexyl)octane]
Protocol: (§1)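 BioMAP Diversity Plus panel of 12 human primary cell co-culture systems (3C, 4H, LPS, SAg, BT, BF4T, BE3C, CASM3C, HDF3CGF, KF3CT, MyoF, Mphg). Compounds were added 1 h before stimulation and left for 24 h (MyoF 48 h; BT 72 h for soluble read-outs or 6 d for IgG). Biomarkers were read by ELISA, cytotoxicity by SRB, PBMC viability and proliferation by Alamar Blue. Each well value was divided by the mean of 8 DMSO control wells on the same plate and log10 transformed; duplicate blinded samples were tested at 4 concentrations.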

[1] = compound: O=C(O)C(F)(F)OC(F)(F)C(F)(F)OC(F)(F)C(F)(F)C(F)(F)C(F)(F)F [Perfluoro-3,6-dioxadecanoic acid]
Protocol: as §1

Perfluorohexanoic acid = compound: O=C(O)C(F)(F)C(F)(F)C(F)(F)C(F)(F)C(F)(F)F [Perfluorohexanoic acid]
Protocol: as §1

[2] = compound: O=P(O)(O)CCC(F)(F)C(F)(F)C(F)(F)C(F)(F)C(F)(F)C(F)(F)C(F)(F)C(F)(F)F [((Perfluorooctyl)ethyl)phosphonic acid]
Protocol: as §1

[3] = compound: O=S(=O)(O)C(F)(F)C(F)(F)C(F)(F)C(F)(F)C(F)(F)C(F)(F)C(F)(F)C(F)(F)F [Potassium perfluorooctanesulfonate]
Protocol: as §1

[4] = compound: C=C(C)C(=O)OCC(F)(F)C(F)(F)C(F)(F)C(F)(F)C(F)(F)C(F)(F)C(F)(F)F
Protocol: as §1

[5] = compound: OCC(F)(F)C(F)(F)C(F)(F)C(F)(F)C(F)(F)C(F)F [1H,1H,7H-Dodecafluoro-1-heptanol]
Protocol: as §1

Test System | level (log10) (1-(Perfluorohexyl)octane; 6700 nM) | level (log10) (1-(Perfluorohexyl)octane; 20000 nM) | level (log10) ([1]; 6700 nM) | level (log10) ([1]; 20000 nM) | level (log10) ([1]; 60000 nM) | level (log10) (Perfluorohexanoic acid; 6700 nM) | level (log10) (Perfluorohexanoic acid; 20000 nM) | level (log10) (Perfluorohexanoic acid; 60000 nM) | level (log10) ([2]; 6700 nM) | level (log10) ([2]; 20000 nM) | level (log10) ([2]; 60000 nM) | level (log10) ([3]; 6700 nM) | level (log10) ([3]; 20000 nM) | level (log10) ([3]; 60000 nM) | level (log10) ([4]; 6700 nM) | level (log10) ([4]; 20000 nM) | level (log10) ([5]; 6700 nM) | level (log10) ([5]; 20000 nM) | level (log10) ([5]; 60000 nM)
BE3C:CXCL8/IL-8 | 0.0125 ± 0.052 | 0.068 ± 0.024 | 0.0135 ± 0.016 | 0.0065 ± 0.019 | -0.0965 ± 0.0092 | 0.0095 ± 0.042 | 0.0135 ± 0.00071 | 0.017 ± 0.021 | 0.0305 ± 0.033 | 0.019 ± 0.028 | -0.001 ± 0.048 | -0.053 ± 0.065 | -0.112 ± 0.035 | -0.082 ± 0.024 | 0.011 ± 0.024 | 0.0275 ± 0.015 | 0.0245 ± 0.053 | 0.0005 ± 0.032 | -0.009 ± 0.014
BE3C:CXCL9/MIG | 0.0055 ± 0.0035 | 0.0015 ± 0.0021 | -0.0045 ± 0.011 | -0.011 ± 0.017 | -0.012 ± 0.0057 | 0.005 ± 0.0014 | 0 ± 0.0099 | 0.001 ± 0.0099 | 0.0165 ± 0.0064 | 0.011 ± 0.0057 | 0.013 ± 0.021 | 0.0095 ± 0.0064 | -0.014 ± 0.024 | -0.039 ± 0.021 | 0.0015 ± 0.00071 | -0.0085 ± 0.0035 | 0.0135 ± 0.0021 | 0.003 ± 0.014 | 0.0115 ± 0.013
BE3C:CXCL10/IP-10 | 0.0055 ± 0.013 | -0.0025 ± 0.012 | -0.0415 ± 0.025 | -0.0795 ± 0.033 | -0.626 ± 0.02 | 0.0095 ± 0.018 | 0.0125 ± 0.0092 | 0.0245 ± 0.011 | -0.0055 ± 0.0064 | -0.001 ± 0.0099 | -0.0045 ± 0.0078 | -0.0455 ± 0.0035 | -0.505 ± 0.0057 | -0.589 ± 0.014 | 0.0135 ± 0.018 | -0.004 ± 0.014 | 0.0055 ± 0.028 | 0.004 ± 0.021 | 0.0125 ± 0.012
BE3C:CXCL11/I-TAC | 0.003 ± 0.016 | -0.0035 ± 0.0021 | 0.0945 ± 0.00071 | 0.124 ± 0.011 | 0.0095 ± 0.022 | 0.008 ± 0.014 | 0.0065 ± 0.0064 | 0.027 ± 0.0042 | -0.0285 ± 0.011 | -0.0225 ± 0.0064 | -0.0205 ± 0.0035 | -0.002 ± 0.0042 | -0.113 ± 0.012 | -0.203 ± 0.024 | -0.0085 ± 0.016 | -0.0095 ± 0.0021 | 0.003 ± 0.02 | 0.0115 ± 0.012 | 0.007 ± 0.021
BE3C:EGFR | -0.001 ± 0.0042 | -0.013 ± 0.0028 | -0.02 ± 0.02 | -0.0485 ± 0.019 | -0.122 ± 0.0092 | 0.003 ± 0.0014 | -0.005 ± 0.0028 | 0.0025 ± 0.015 | -0.025 ± 0.014 | -0.0355 ± 0.025 | -0.0345 ± 0.033 | -0.012 ± 0.021 | -0.173 ± 0.043 | -0.182 ± 0.071 | -0.0175 ± 0.011 | -0.0295 ± 0.011 | 0.0125 ± 0.0092 | -0.0005 ± 0.0092 | 0.0095 ± 0.0021
BE3C:HLA-DR | 0.0095 ± 0.036 | 0.0015 ± 0.005 | -0.038 ± 0.021 | -0.08 ± 0.0085 | -0.135 ± 0.017 | -0.0025 ± 0.0021 | -0.011 ± 0.0028 | -0.012 ± 0.0099 | -0.025 ± 0.0099 | -0.031 ± 0.013 | -0.0075 ± 0.013 | -0.012 ± 0.018 | -0.194 ± 0.023 | -0.191 ± 0.042 | 0.008 ± 0.0085 | 0.001 ± 0.013 | 0.0155 ± 0.032 | -0.0015 ± 0.042 | -0.0095 ± 0.015
BE3C:IL-1alpha | 0.001 ± 0.02 | 0.0415 ± 0.044 | -0.0135 ± 0.0021 | -0.0005 ± 0.0078 | -0.165 ± 0.021 | 0.005 ± 0.0071 | -0.0115 ± 0.0035 | -0.002 ± 0.0042 | -0.017 ± 0.016 | -0.019 ± 0.025 | 0.0085 ± 0.056 | 0.022 ± 0.0042 | 0.02 ± 0.0071 | -0.0105 ± 0.03 | -0.008 ± 0.013 | 0.0405 ± 0.042 | 0.0085 ± 0.021 | 0.0045 ± 0.0092 | 0.024 ± 0.0057
BF4T:CCL2/MCP-1 | -0.014 ± 0.028 | 0.0175 ± 0.005 | -0.175 ± 0.031 | -0.095 ± 0.016 | -0.16 ± 0.052 | -0.0045 ± 0.0021 | -0.012 ± 0.024 | -0.0015 ± 0.052 | 0.0125 ± 0.019 | 0.0295 ± 0.026 | 0.061 ± 0.02 | 0.005 ± 0.072 | 0.0255 ± 0.022 | 0.07 ± 0.016 | -0.008 ± 0.035 | 0.0195 ± 0.013 | 0.022 ± 0.05 | 0.0085 ± 0.057 | 0.009 ± 0.02
BF4T:CCL26/Eotaxin-3 | 0.015 ± 0.051 | 0.0015 ± 0.054 | -0.241 ± 0.012 | -0.23 ± 0.018 | -0.231 ± 0.046 | 0.0135 ± 0.015 | 0.005 ± 0.024 | 0.0115 ± 0.011 | -0.084 ± 0.0099 | -0.157 ± 0.018 | -0.14 ± 0.056 | -0.0775 ± 0.074 | -0.146 ± 0.056 | -0.126 ± 0.0064 | 0.002 ± 0.055 | -0.0155 ± 0.042 | 0.0025 ± 0.043 | -0.0005 ± 0.036 | 0.013 ± 0.028
BF4T:CD54/ICAM-1 | 0.0005 ± 0.005 | -0.0085 ± 0.023 | -0.04 ± 0.0057 | -0.0335 ± 0.0035 | -0.0365 ± 0.005 | -0.011 ± 0.0014 | -0.0135 ± 0.0064 | -0.0005 ± 0.0021 | 0.0035 ± 0.029 | 0.001 ± 0.031 | -0.0035 ± 0.046 | 0.0055 ± 0.032 | 0.0025 ± 0.012 | 0.0215 ± 0.035 | -0.0015 ± 0.016 | -0.0075 ± 0.0064 | 0.0045 ± 0.0064 | 0.004 ± 0.014 | 0.006 ± 0.013
BF4T:CD90 | -0.004 ± 0.0028 | -0.013 ± 0.0071 | -0.023 ± 0.0099 | -0.004 ± 0.0014 | 0.017 ± 0.0071 | -0.0045 ± 0.011 | -0.0005 ± 0.011 | -0.007 ± 0.011 | 0.001 ± 0.0099 | 0.0035 ± 0.005 | 0.014 ± 0.021 | 0.0085 ± 0.0064 | -0.0075 ± 0.00071 | 0.0075 ± 0.019 | -0.0135 ± 0.0064 | -0.011 ± 0.0085 | -0.0045 ± 0.0035 | -0.0085 ± 0.012 | -0.0035 ± 0.015
BF4T:CD106/VCAM-1 | 0.005 ± 0.051 | -0.0025 ± 0.035 | -0.0965 ± 0.018 | -0.083 ± 0.0099 | -0.0925 ± 0.03 | 0.0025 ± 0.042 | -0.0145 ± 0.0078 | -0.017 ± 0.017 | -0.009 ± 0.018 | 0.0185 ± 0.019 | 0.0205 ± 0.052 | 0.0115 ± 0.015 | -0.014 ± 0.0099 | 0.01 ± 0.052 | 0.015 ± 0.014 | 0.0105 ± 0.05 | -0.0065 ± 0.039 | -0.0035 ± 0.013 | 0.011 ± 0.031
BF4T:CXCL8/IL-8 | -0.0005 ± 0.00071 | 0.008 ± 0.023 | 0.102 ± 0.0092 | 0.163 ± 0.011 | 0.171 ± 0.019 | -0.0055 ± 0.025 | 0.0155 ± 0.0078 | 0.0415 ± 0.042 | 0.0075 ± 0.012 | 0.026 ± 0.017 | 0.0325 ± 0.0092 | 0.0005 ± 0.052 | -0.0105 ± 0.047 | 0.0205 ± 0.0078 | 0.011 ± 0.013 | 0.007 ± 0.0099 | 0.016 ± 0.051 | 0.0355 ± 0.04 | 0.0205 ± 0.03
BF4T:IL-1alpha | -0.017 ± 0.018 | 0.012 ± 0.02 | 0.008 ± 0.0057 | 0.0015 ± 0.00071 | -0.0055 ± 0.005 | -0.001 ± 0.0042 | -0.0035 ± 0.012 | 0.007 ± 0.0042 | -0.0165 ± 0.015 | -0.001 ± 0.0028 | 0.015 ± 0.02 | 0.003 ± 0.0028 | 0.0065 ± 0.0078 | 0.0125 ± 0.044 | -0.0175 ± 0.025 | 0.006 ± 0.0099 | -0.006 ± 0.024 | -0.006 ± 0.0099 | -0.0085 ± 0.012
BF4T:Keratin 8/18 | 0.006 ± 0.016 | 0.0055 ± 0.0078 | -0.0125 ± 0.0064 | -0.0225 ± 0.011 | 0.004 ± 0.033 | 0.017 ± 0.028 | 0.0165 ± 0.015 | -0.006 ± 0.037 | -0.016 ± 0.017 | -0.0195 ± 0.005 | -0.0155 ± 0.042 | -0.0035 ± 0.022 | 0.01 ± 0.014 | 0.0385 ± 0.053 | 0.014 ± 0.0028 | -0.003 ± 0.0014 | -0.0025 ± 0.0021 | -0.0055 ± 0.012 | 0.004 ± 0.014
